Assay results taken from US12371436B2, “Substituted benzodiazoliums as ENaC inhibitors” (ENTERPRISE THERAPEUTICS LIMITED, priority 2016, dated 2025).
Where a name gives a salt, the structure may show the parent alone.

Key:
ENaC = target: T1, ENaC (Homo sapiens, UniProt P37088+P51168+P51170); test: Short circuit current assay to determine ENaC blocker potency in human bronchial epithelial cells; assay type: cell-based; conditions: 50% inhibition of total amiloride-sensitive ISC, apical addition, read-out: Averages.ENaC IC50 (nM) Avg
T1 construct: host or cells: primary human bronchial epithelial cells (HBECs) differentiated at air-liquid interface
T1 sequence (P37088 1-669): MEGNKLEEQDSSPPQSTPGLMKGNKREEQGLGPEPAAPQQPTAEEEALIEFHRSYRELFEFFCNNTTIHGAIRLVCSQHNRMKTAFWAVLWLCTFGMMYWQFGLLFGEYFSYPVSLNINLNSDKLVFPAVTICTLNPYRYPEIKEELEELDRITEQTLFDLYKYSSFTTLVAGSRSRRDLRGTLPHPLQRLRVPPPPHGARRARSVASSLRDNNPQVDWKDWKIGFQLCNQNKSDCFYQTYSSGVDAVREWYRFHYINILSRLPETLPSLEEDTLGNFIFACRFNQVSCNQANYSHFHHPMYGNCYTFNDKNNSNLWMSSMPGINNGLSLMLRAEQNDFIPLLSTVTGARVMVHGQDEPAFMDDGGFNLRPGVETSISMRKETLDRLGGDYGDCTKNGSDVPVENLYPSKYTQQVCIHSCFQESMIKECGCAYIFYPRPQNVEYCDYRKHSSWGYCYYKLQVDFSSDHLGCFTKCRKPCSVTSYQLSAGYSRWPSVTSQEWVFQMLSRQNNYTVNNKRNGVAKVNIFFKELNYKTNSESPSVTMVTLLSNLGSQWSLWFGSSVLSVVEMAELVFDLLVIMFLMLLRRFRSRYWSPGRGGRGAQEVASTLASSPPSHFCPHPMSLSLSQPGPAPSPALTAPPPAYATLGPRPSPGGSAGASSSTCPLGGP
T1 sequence (P51168 1-640): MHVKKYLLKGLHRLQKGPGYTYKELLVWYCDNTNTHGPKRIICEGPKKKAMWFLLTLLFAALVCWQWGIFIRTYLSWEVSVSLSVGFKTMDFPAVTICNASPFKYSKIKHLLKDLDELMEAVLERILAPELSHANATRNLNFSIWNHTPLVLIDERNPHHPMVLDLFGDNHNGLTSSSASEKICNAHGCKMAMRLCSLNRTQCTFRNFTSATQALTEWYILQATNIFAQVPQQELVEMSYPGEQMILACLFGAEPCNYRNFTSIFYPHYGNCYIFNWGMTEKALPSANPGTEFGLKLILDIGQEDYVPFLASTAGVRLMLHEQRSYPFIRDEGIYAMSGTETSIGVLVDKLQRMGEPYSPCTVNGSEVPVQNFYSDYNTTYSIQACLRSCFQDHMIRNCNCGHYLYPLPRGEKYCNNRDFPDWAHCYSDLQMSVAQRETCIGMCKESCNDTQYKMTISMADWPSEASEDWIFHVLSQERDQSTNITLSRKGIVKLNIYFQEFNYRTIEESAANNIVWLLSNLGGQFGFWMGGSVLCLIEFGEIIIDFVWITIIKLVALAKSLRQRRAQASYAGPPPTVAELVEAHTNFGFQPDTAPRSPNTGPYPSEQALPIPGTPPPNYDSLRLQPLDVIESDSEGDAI
T1 sequence (P51170 1-649): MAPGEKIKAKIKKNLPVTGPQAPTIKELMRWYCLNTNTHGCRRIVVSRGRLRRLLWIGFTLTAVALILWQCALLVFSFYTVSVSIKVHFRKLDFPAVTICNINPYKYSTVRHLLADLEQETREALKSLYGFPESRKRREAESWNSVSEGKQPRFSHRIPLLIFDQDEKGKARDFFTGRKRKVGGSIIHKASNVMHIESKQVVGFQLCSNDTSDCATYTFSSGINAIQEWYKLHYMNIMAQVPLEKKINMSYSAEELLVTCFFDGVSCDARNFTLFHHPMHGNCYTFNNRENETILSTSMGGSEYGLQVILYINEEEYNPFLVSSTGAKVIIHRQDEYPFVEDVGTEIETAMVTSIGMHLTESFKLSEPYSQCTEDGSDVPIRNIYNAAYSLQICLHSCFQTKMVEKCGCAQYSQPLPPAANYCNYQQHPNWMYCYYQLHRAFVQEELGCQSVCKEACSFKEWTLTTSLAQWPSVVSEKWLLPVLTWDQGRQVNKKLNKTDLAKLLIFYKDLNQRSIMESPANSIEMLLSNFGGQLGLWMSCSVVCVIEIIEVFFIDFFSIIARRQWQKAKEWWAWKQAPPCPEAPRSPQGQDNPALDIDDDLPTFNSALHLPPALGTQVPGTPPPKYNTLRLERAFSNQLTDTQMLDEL
Outline: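 Primary human bronchial epithelial cells at air-liquid interface (days 14–21) were voltage-clamped at 0 mV in Ussing chambers (Ringer, pH 7.4, 37° C.). Compounds were added apically as cumulative concentrations, then 10 μM amiloride. IC50 was taken as 50% inhibition of amiloride-sensitive ISC.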

[1] = Bronchoalveolar lavage (BAL) procedure: compound levels after intratracheal administration; assay type: in vivo; conditions: bronchoalveolar lavage fluid (BAL), other: intratracheal, 0.1 mg/kg, rat, 0.1 mg/mL solution in 5% dextrose, 1 mL/Kg, BAL 6 hours after administration, LC/MS/MS
Description: Example 69—Bronchoalveolar Lavage (BAL) Procedure A 0.1 mg/mL solution of ENaC inhibitor in 5% dextrose was administered intratracheally to a rat weighing 225-250 g. A volume of 1 mL/Kg was used. After 6 hours, lungs were lavaged with 3×4 mL of sterile saline. A 1 mL aliquot was subsequently snap frozen. Lungs were excised, weighed and snap frozen. Compound levels in the BAL and lung tissue were subsequently determined using LC/MS/MS bioanalysis.

Row | IC50 (ENaC) | concentration at 6 h [1] | Structure (SMILES)
1 | 8 nM |  | CCn1c(CNC(=O)c2nc3cc[nH]c3nc2N)[n+](CC)c2ccc(C3CCN(C[C@H](O)[C@@H](O)[C@H](O)[C@H](O)CO)CC3)cc21 [Example 46, 2-[({3-amino-5H-pyrrolo[2,3-b]pyrazin-2-yl}formamido)methyl]-1,3-diethyl-6-{1-[(2S,3R,4R,5R)-2,3,4,5,6-pentahydroxyhexyl]piperidin-4-yl}-1H-1,3-benzodiazol-3-ium]
2 | 5 nM |  | CCn1c(CNC(=O)c2nc3cc[nH]c3nc2N)[n+](CC)c2ccc(-c3cnn(C4CCN(C[C@H](O)[C@@H](O)[C@H](O)[C@H](O)CO)CC4)c3)cc21 [Example 47, 2-[({3-amino-5H-pyrrolo[2,3-b]pyrazin-2-yl}formamido)methyl]-1,3-diethyl-6-(1-{1-[(2S,3R,4R,5R)-2,3,4,5,6-pentahydroxyhexyl]piperidin-4-yl}-1H-pyrazol-4-yl)-1H-1,3-benzodiazol-3-ium]
3 | 18 nM |  | CCn1c(CNC(=O)c2nc3cc[nH]c3nc2N)[n+](CC)c2ccc(C(=O)NCCCN(C[C@H](O)[C@@H](O)[C@H](O)[C@H](O)CO)C[C@H](O)[C@@H](O)[C@H](O)[C@H](O)CO)cc21 [Example 48, 2-[({3-amino-5H-pyrrolo[2,3-b]pyrazin-2-yl}formamido)methyl]-6-[(3-{bis[(2S,3R,4R,5R)-2,3,4,5,6-pentahydroxyhexyl]amino}propyl)carbamoyl]-1,3-diethyl-1H-1,3-benzodiazol-3-ium]
4 | 7 nM |  | CCn1c(CNC(=O)c2nc3cc[nH]c3nc2N)[n+](CC)c2ccc(C(=O)NC3CCN(C[C@H](O)[C@@H](O)[C@H](O)[C@H](O)CO)CC3)cc21 [Example 49, 2-[({3-amino-5H-pyrrolo[2,3-b]pyrazin-2-yl}formamido)methyl]-1,3-diethyl-6-({1-[(2S,3R,4R,5R)-2,3,4,5,6-pentahydroxyhexyl]piperidin-4-yl}carbamoyl)-1H-1,3-benzodiazol-3-ium]
5 | 35 nM | 260 ng/mL | CCn1c(CNC(=O)c2nc3cc[nH]c3nc2N)[n+](CC)c2ccc(C(=O)N3CCC(N(C[C@H](O)[C@@H](O)[C@H](O)[C@H](O)CO)C[C@H](O)[C@@H](O)[C@H](O)[C@H](O)CO)CC3)cc21 [Example 50, 2-[({3-amino-5H-pyrrolo[2,3-b]pyrazin-2-yl}formamido)methyl]-6-(4-{bis[(2S,3R,4R,5R)-2,3,4,5,6-pentahydroxyhexyl]amino}piperidine-1-carbonyl)-1,3-diethyl-1H-1,3-benzodiazol-3-ium]
6 | 38 nM |  | CCn1c(CNC(=O)c2nc3cc[nH]c3nc2N)[n+](CC)c2ccc(C(=O)NCCN3CCC(N(C[C@H](O)[C@@H](O)[C@H](O)[C@H](O)CO)C[C@H](O)[C@@H](O)[C@H](O)[C@H](O)CO)CC3)cc21 [Example 51, 2-[({3-amino-5H-pyrrolo[2,3-b]pyrazin-2-yl}formamido)methyl]-6-{[2-(4-{bis[(2S,3R,4R,5R)-2,3,4,5,6-pentahydroxyhexyl]amino}piperidin-1-yl)ethyl]carbamoyl}-1,3-diethyl-1H-1,3-benzodiazol-3-ium]
7 | 69 nM | 302 ng/mL | CCn1c(CNC(=O)c2nc3cc[nH]c3nc2N)[n+](CC)c2ccc(C(=O)N3CCC(CN(C[C@H](O)[C@@H](O)[C@H](O)[C@H](O)CO)C[C@H](O)[C@@H](O)[C@H](O)[C@H](O)CO)CC3)cc21 [Example 52, 2-[({3-amino-5H-pyrrolo[2,3-b]pyrazin-2-yl}formamido)methyl]-5-[4-({bis[(2S,3R,4R,5R)-2,3,4,5,6-pentahydroxyhexyl]amino}methyl)piperidine-1-carbonyl]-1,3-diethyl-1H-1,3-benzodiazol-3-ium]
8 | 202 nM |  | CCn1c(CNC(=O)c2nc3cc[nH]c3nc2N)[n+](CC)c2ccc(C(=O)N3CC[C@@H](N(C[C@H](O)[C@@H](O)[C@H](O)[C@H](O)CO)C[C@H](O)[C@@H](O)[C@H](O)[C@H](O)CO)C3)cc21 [Example 53, 2-[({3-amino-5H-pyrrolo[2,3-b]pyrazin-2-yl}formamido)methyl]-6-[(3R)-3-{bis[(2S,3R,4R,5R)-2,3,4,5,6-pentahydroxyhexyl]amino}pyrrolidine-1-carbonyl]-1,3-diethyl-1H-1,3-benzodiazol-3-ium]
9 | 133 nM |  | CCn1c(CNC(=O)c2nc3c(Cl)c[nH]c3nc2N)[n+](CC)c2ccc(C(=O)O)cc21 [Example 63, 2-[({3-amino-7-chloro-5H-pyrrolo[2,3-b]pyrazin-2-yl}formamido)methyl]-6-carboxy-1,3-diethyl-1H-1,3-benzodiazol-3-ium]
10 | 244 nM |  | CCn1c(CNC(=O)c2nc3c(Br)c[nH]c3nc2N)[n+](CC)c2ccc(C(=O)O)cc21 [Example 64, 2-[({3-amino-7-bromo-5H-pyrrolo[2,3-b]pyrazin-2-yl}formamido)methyl]-6-carboxy-1,3-diethyl-1H-1,3-benzodiazol-3-ium]
11 | 49 nM |  | CCn1c(CNC(=O)c2nc3c(Cl)c[nH]c3nc2N)[n+](CC)c2ccc(C(=O)N3CCC(N(C[C@H](O)[C@@H](O)[C@H](O)[C@H](O)CO)C[C@H](O)[C@@H](O)[C@H](O)[C@H](O)CO)CC3)cc21 [Example 65, 2-[({3-amino-7-chloro-5H-pyrrolo[2,3-b]pyrazin-2-yl}formamido)methyl]-6-(4-{bis[(2S,3R,4R,5R)-2,3,4,5,6-pentahydroxyhexyl]amino}piperidine-1-carbonyl)-1,3-diethyl-1H-1,3-benzodiazol-3-ium]
12 | 199 nM |  | CCn1c(CNC(=O)c2nc3c(Br)c[nH]c3nc2N)[n+](CC)c2ccc(C(=O)N3CCC(N(C[C@H](O)[C@@H](O)[C@H](O)[C@H](O)CO)C[C@H](O)[C@@H](O)[C@H](O)[C@H](O)CO)CC3)cc21 [Example 66, 2-[({3-amino-7-bromo-5H-pyrrolo[2,3-b]pyrazin-2-yl}formamido)methyl]-6-(4-{bis[(2S,3R,4R,5R)-2,3,4,5,6-pentahydroxyhexyl]amino}piperidine-1-carbonyl)-1,3-diethyl-1H-1,3-benzodiazol-3-ium]
13 | 54 nM |  | CCn1c(CNC(=O)c2nc3c(C#N)c[nH]c3nc2N)[n+](CC)c2ccc(OC)cc21 [Example 67, 2-[({3-amino-7-cyano-5H-pyrrolo[2,3-b]pyrazin-2-yl}formamido)methyl]-1,3-diethyl-6-methoxy-1H-1,3-benzodiazol-3-ium formate]
